How the values were obtained:
[1] = human, in vivo
Method: Clinical Trial—BHV3000-303: Phase 3: Double-Blind, Randomized, Placebo-Controlled, Safety and Efficacy Trial of BHV-3000 (Rimegepant) Orally Discintegrating Tablet (ODT) for the Acute Treatment of Migraine (ClinicalTrials.gov Identifier: NCT03461757) • A phase 3 clinical study was conducted with 1812 participants, as follows.
Study Design • Study Type: Interventional (Clinical Trial) • Actual Enrollment: 1812 participants • Allocation: Randomized • Intervention Model: Parallel Assignment • Masking: Triple (Participant, Care Provider, Investigator) • Primary Purpose: Treatment • Official Title: BHV3000-303: Phase 3, Double-Blind, Randomized, Placebo Controlled, Safety and Efficacy Trial of BHV-3000 (Rimegepant) Orally Disintegrating Tablet (ODT) for the Acute Treatment of Migraine • Actual Study Start Date: Feb. 27, 2018 • Actual Primary Completion Date: Oct. 8, 2018 • Actual Study Completion Date: Oct. 15, 2018

[2] = system: subjects with Acute Migraines; assay: BHV3000-301 Phase 3 trial, acute treatment of migraine: efficacy; assay type: in vivo, human; details: Study 301; P<0.0001
Method: Clinical Trial—BHV3000-301: Phase 3: Double-Blind, Randomized, Placebo-Controlled, Safety and Efficacy Trial of BHV-3000 (Rimegepant) for the Acute Treatment of Migraine (ClinicalTrials.gov Identifier: NCT03235479). A phase 3 clinical study was conducted with 1490 participants, as follows. […] Pain freedom of rimegepant (75 mg tablet) compared with placebo in the acute treatment of migraine will be measured using the number of evaluable subjects that report no pain at 2 hours post-dose. [Time Frame: Two hours post dose] • Pain will be measured on a 4 point Likert scale (0=none, 1=mild, 2=moderate, 3=severe) • 2. Freedom from the most bothersome symptom (MBS) of rimegepant (75 mg tablet) compared with placebo will be measured using the number of evaluable subjects that report the absence of their MBS at 2 hours post-dose. [Time Frame: Two hours post dose] • The MBS (nausea, phonophobia or photophobia) will measured using a binary scale (0=absent, 1=present). […] [Time Frame: 2 hours -24 hours post-dose] • Sustained Pain Freedom as measured by a 4 point numeric rating scale (None, Mild, Moderate, Severe) • 2. […] [Time Frame: 2 hours post-dose] • Pain Relief as measured by a 4 point numeric rating scale (None, Mild, Moderate, Severe) • 5. […] Sustained Pain Relief as measured by a 4 point numeric rating scale (None, Mild, Moderate, Severe) • 9. […]

LFTs >3xULN [1]: one patient
Structure (SMILES): N[C@@H]1c2cccnc2[C@H](OC(=O)N2CCC(n3c(=O)[nH]c4ncccc43)CC2)CC[C@H]1c1cccc(F)c1F [Rimegepant, [(55,65,9R)-5-amino-6-(2,3-difluorophenyl)-6,7,8,9-tetrahydro-5H-cyclohepta[b]pyridin-9-yl]4-(2-oxo-3H-imidazo[4,5-b]pyridin-1-yl)piperidine-1-carboxylate]
safety and tolerability [1]: consistent with the profile previously observed in Study 301
highest incidence of any single adverse event (AE) ([1]; 48 h): ≤ 1.6%
patients achieving normal function at 2 hours (functional disability) versus placebo [2]: greater proportion

Reference: US20210000814A1, “RIMEGEPANT FOR CGRP RELATED DISORDERS” (Biohaven Pharmaceutical Holding Company Ltd., priority 2018, published 2021)
